In patent publication US20250099448A1, “HETEROCYCLIC COMPOUNDS” (Hoffmann-La Roche Inc., priority 2022, published 2025):

Each compound was assayed against T1, MAGL protein (Homo sapiens, UniProt Q99685) (assay: 2-AG assay: MAGL inhibitory activity by hydrolysis of 2-arachidonoylglycerol to arachidonic acid, followed by mass spectrometry). Conditions: 8 μM 2-arachidonoylglycerol, 15 min preincubation, 30 min reaction at RT, RapidFire MS readout.
T1 sequence (Q99685 1-303): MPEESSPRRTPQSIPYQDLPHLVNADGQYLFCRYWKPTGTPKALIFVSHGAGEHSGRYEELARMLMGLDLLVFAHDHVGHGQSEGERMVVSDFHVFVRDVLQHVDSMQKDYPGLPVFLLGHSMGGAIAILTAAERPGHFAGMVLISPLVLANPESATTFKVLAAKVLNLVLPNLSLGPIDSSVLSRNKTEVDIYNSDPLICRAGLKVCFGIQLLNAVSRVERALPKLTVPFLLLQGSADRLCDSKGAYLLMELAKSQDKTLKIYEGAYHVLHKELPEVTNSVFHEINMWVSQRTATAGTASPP
Assay type: biochemical
How it was run: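 MAGL was preincubated 15 min at RT with compound (12.5 to […], 3-fold steps) in 50 mM TRIS, 1 mM EDTA, 0.01% Tween-20, 2.5% DMSO. The reaction ran 30 min at RT with 8 μM 2-AG. Arachidonic acid was quantified by RapidFire SPE-MS/MS against a d8-arachidonic acid internal standard.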

Row | IC50 | Structure (SMILES)
1 | 0.07 nM | CS(=O)(=O)c1cc(Cl)ccc1-c1ccc(C2CN(C(=O)N3CC4(CC(c5nnc(C6CC6)[nH]5)C4)C3)C2)cc1 [compound 337]
2 | 0.09 nM | CS(=O)(=O)c1ccc(-c2ccc(C3CN(C(=O)N4CC5(CC(c6nnc(C7CC7)[nH]6)C5)C4)C3)cc2)c(Cl)c1 [compound 338]
3 | 0.16 nM | COC(=O)c1ccccc1-c1ccc(C2CN(C(=O)N3CC4(CC(c5nnc(C6CC6)[nH]5)C4)C3)C2)cc1 [compound 339]
4 | 1.09 nM | NC(=O)c1ccccc1-c1ccc(C2CN(C(=O)N3CC4(CC(c5nnc(C6CC6)[nH]5)C4)C3)C2)cc1 [compound 340]
5 | 0.12 nM | O=C(N1CC(C23CC(CNC4(C(F)(F)F)CC4)(C2)C3)C1)N1CC2(CC(c3nnc(C4CC4)[nH]3)C2)C1 [compound 341]
6 | 0.49 nM | O=C(N1CC(C23CC(NCC4(C(F)(F)F)CC4)(C2)C3)C1)N1CC2(CC(c3nnc(C4CC4)[nH]3)C2)C1 [compound 342]
7 | 0.97 nM | CC(C)(C)Cc1nnc(C23CC(C4CN(C(=O)N5CC6(CC(c7nnc(C8CC8)[nH]7)C6)C5)C4)(C2)C3)o1 [compound 343]
8 | 7.59 nM | O=C(N1CC(C23CC(c4nnc(CC(F)(F)F)o4)(C2)C3)C1)N1CC2(CC(c3nnc(C4CC4)[nH]3)C2)C1 [compound 344]
9 | 9.15 nM | O=C(N1CC(C23CC(c4nnc(C5CC5)o4)(C2)C3)C1)N1CC2(CC(c3nnc(C4CC4)[nH]3)C2)C1 [compound 345]
10 | 0.13 nM | O=C(N1CC2(CCC(Oc3cc(Cl)ccc3Cl)CC2)C1)N1CC2(CC(c3nnc(C4(O)CC4)[nH]3)C2)C1 [compound 346]
11 | 0.31 nM | O=C(N1CC(COc2ccc(C(F)(F)F)cc2F)C1)N1CC2(CC(c3nnc(C4CC4)[nH]3)C2)C1 [compound 347]
12 | 0.63 nM | O=C(N1CC2(CCC(NS(=O)(=O)c3cccc(OC(F)(F)F)c3)CC2)C1)N1CC2(CC(c3nnc(C4CC4)[nH]3)C2)C1 [compound 348]
13 | 2.48 nM | O=C(N1CC(CCc2ccc(C(F)(F)F)cc2F)C1)N1CC2(CC(c3nc(C4(O)CC4)n[nH]3)C2)C1 [compound 349]
14 | 3.43 nM | CS(=O)(=O)c1ccc(Cl)cc1OC1CCC2(CC1)CN(C(=O)N1CC3(CC(c4nnc(C5CC5)[nH]4)C3)C1)C2 [compound 350]
15 | 3.59 nM | O=C(N1CC2(CCC(Nc3cnc(C(F)(F)F)cn3)CC2)C1)N1CC2(CC(c3nnc(C4CC4)[nH]3)C2)C1 [compound 351]
16 | 3.94 nM | O=C(N1CC2(CC(CNCC3(C(F)(F)F)CC3)C2)C1)N1CC2(CC(c3nnc(C4CC4)[nH]3)C2)C1 [compound 352]
17 | 5.12 nM | O=C(N1CC(COc2ccc(F)cc2Cl)C1)N1CC2(CC(c3nnc(C4CC4)[nH]3)C2)C1 [compound 353]
18 | 5.39 nM | O=C(N1CC2(CC(CNC3(C(F)(F)F)COC3)C2)C1)N1CC2(CC(c3nnc(C4CC4)[nH]3)C2)C1 [compound 354]
19 | 8.86 nM | CS(=O)(=O)c1cc(F)ccc1OC1CCC2(CC1)CN(C(=O)N1CC3(CC(c4nnc(C5CC5)[nH]4)C3)C1)C2 [compound 355]
20 | 11.7 nM | O=C(N1CC2(CC(c3nnc(C4CC4)[nH]3)C2)C1)N1CC2(CC(S(=O)(=O)c3ccc(F)cc3Cl)C2)C1 [compound 356]
21 | 25.6 nM | CC1(NCC2CC3(C2)CN(C(=O)N2CC4(CC(c5nnc(C6CC6)[nH]5)C4)C2)C3)CS(=O)(=O)C1 [compound 357]

Row | IC50 | Structure (SMILES)
22 | 26.3 nM | O=C(N1CC2(CCC(NS(=O)(=O)C3CCC(F)(F)CC3)CC2)C1)N1CC2(CC(c3nnc(C4CC4)[nH]3)C2)C1 [compound 358]
23 | 28.4 nM | O=C(NCC1(C(F)(F)F)CC1)C1CC2(C1)CN(C(=O)N1CC3(CC(c4nnc(C5CC5)[nH]4)C3)C1)C2 [compound 359]
24 | 32 nM | O=C(N1CC(C2CN(Cc3ccc(C(F)(F)F)cc3)C2)C1)N1CC2(CC(c3nnc(C4CC4)[nH]3)C2)C1 [compound 360]
25 | 45.6 nM | O=C(N1CC(Cc2ccc(Cl)cc2)C1)N1CC2(CC(c3nnc(C4(O)CC4)[nH]3)C2)C1 [compound 361]
26 | 106 nM | NC(=O)C(c1ccc(F)cc1)C1CCN(C(=O)N2CC3(CC(c4nnc(C5CC5)[nH]4)C3)C2)CC1 (stereo not shown) [compound 362]
27 | 244 nM | O=C(N1C[C@H]2CN(Cc3ccccc3)C[C@H]2C1)N1CC2(CC(c3nnc(C4CC4)[nH]3)C2)C1 [compound 363]
28 | 377 nM | O=C(N1CC2(CC(CNC3CS(=O)(=O)C3)C2)C1)N1CC2(CC(c3nnc(C4CC4)[nH]3)C2)C1 [compound 364]
29 | 0.06 nM | CC(C)(C)n1nnc(C2(c3ccc(C4CN(C(=O)N5CC6(CC(c7nnc(C8CC8)[nH]7)C6)C5)C4)cc3)CC2)n1 [compound 365]
30 | 0.08 nM | CC(C)(Oc1ccc(C2CN(C(=O)N3CC4(CC(c5nnc(C6CC6)[nH]5)C4)C3)C2)cc1)C(F)(F)F [compound 366]
31 | 0.15 nM | O=C(N1CC(c2ccc(Oc3ccccc3Cl)nc2)C1)N1CC2(CC(c3nnc(C4CC4)[nH]3)C2)C1 [compound 367]
32 | 0.17 nM | CC(C)(Oc1ccc(C2CN(C(=O)N3CC4(CC(c5nnc(C6(O)CC6)[nH]5)C4)C3)C2)cc1)C(F)(F)F [compound 368]
33 | 0.4 nM | O=C(N1CC(c2ccc(S(=O)(=O)c3ccccc3)cc2)C1)N1CC2(CC(c3nnc(C4CC4)[nH]3)C2)C1 [compound 371]
34 | 0.57 nM | COC(=O)C1(c2ccc(C3CN(C(=O)N4CC5(CC(c6nnc(C7CC7)[nH]6)C5)C4)C3)cc2)CC1 [compound 372]
35 | 1.61 nM | O=C(N1CC(c2ccc(Oc3ccccc3Cl)nc2)C1)N1CC2(CC(c3nnc(C4(O)CC4)[nH]3)C2)C1 [compound 374]
36 | 1.89 nM | O=C(N1CC(c2ccc(OCC3(C(F)(F)F)CC3)cc2)C1)N1CC2(CC(c3nnc(C4(O)CC4)[nH]3)C2)C1 [compound 375]
37 | 2.22 nM | N#CC1(c2ccc(C3CN(C(=O)N4CC5(CC(c6nnc(C7CC7)[nH]6)C5)C4)C3)cc2)CC1 [compound 376]
38 | 4.29 nM | O=C(N1CC(c2ccc(-c3nnc(C4(C(F)(F)F)CC4)[nH]3)cc2)C1)N1CC2(CC(c3nc(C4CC4)n[nH]3)C2)C1 [compound 377]
39 | 16.6 nM | O=C(N1CC(c2ccc(Oc3ccccc3Cl)nn2)C1)N1CC2(CC(c3nnc(C4CC4)[nH]3)C2)C1 [compound 378]
40 | 61 nM | O=C(N1CC(c2ccc(C3(c4nnn[nH]4)CC3)cc2)C1)N1CC2(CC(c3nnc(C4CC4)[nH]3)C2)C1 [compound 379]
41 | 64.2 nM | NS(=O)(=O)c1ccc(C2CN(C(=O)N3CC4(CC(c5nnc(C6CC6)[nH]5)C4)C3)C2)cc1 [compound 380]
42 | 0.69 nM | CP(C)(=O)Cc1ccc(C2CN(C(=O)N3CC4(CC(c5nnc(C6CC6)[nH]5)C4)C3)C2)cc1 [compound 381]

Row | IC50 | Structure (SMILES)
43 | 21.4 nM | CC(C)c1ccc(N(C)c2ccc(C3CN(C(=O)N4CC5(CC(c6nnc(C7CC7)[nH]6)C5)C4)C3)cn2)cc1 [compound 382]
44 | 2.09 nM | CN(c1ccccc1)c1ccc(C2CN(C(=O)N3CC4(CC(c5nnc(C6CC6)[nH]5)C4)C3)C2)cn1 [compound 383]
45 | 2.64 nM | NC(=O)C1CCCCN1c1ccc(C2CN(C(=O)N3CC4(CC(c5nnc(C6CC6)[nH]5)C4)C3)C2)cc1 (stereo not shown) [compound 384]
46 | 3.76 nM | NC(=O)C1CC(F)(F)CCN1c1ccc(C2CN(C(=O)N3CC4(CC(c5nnc(C6CC6)[nH]5)C4)C3)C2)cc1 (stereo not shown) [compound 385]
47 | 246 nM | NC(=O)C1CCCN1c1ccc(C2CN(C(=O)N3CC4(CC(c5nnc(C6CC6)[nH]5)C4)C3)C2)cc1 (stereo not shown) [compound 386]
48 | 2.63 nM | CC(C)(C)c1ccc(C2CN(C(=O)N3CC4(CC(c5nc(C6CC6)n[nH]5)C4)C3)C2)cn1 [compound 399]
49 | 1.17 nM | O=C(N1CC2(CC(Cc3cc(C(F)(F)F)ncn3)C2)C1)N1CC2(CC(c3nc(C4CC4)n[nH]3)C2)C1 [compound 400]
50 | 0.4 nM | O=C(N1CC2(CC(Cc3cnn(C(F)(F)F)c3)C2)C1)N1CC2(CC(c3nc(C4CC4)n[nH]3)C2)C1 [compound 401]
51 | 0.95 nM | O=C(N1CC2(CC(Cc3ccnc(C(F)(F)F)n3)C2)C1)N1CC2(CC(c3nc(C4CC4)n[nH]3)C2)C1 [compound 402]
52 | 0.75 nM | O=C(N1CC2(CC(Cc3nccc(C(F)(F)F)n3)C2)C1)N1CC2(CC(c3nc(C4CC4)n[nH]3)C2)C1 [compound 403]
53 | 0.29 nM | O=C(N1CC2(CC(Cc3cc(C(F)(F)F)n[nH]3)C2)C1)N1CC2(CC(c3nc(C4CC4)n[nH]3)C2)C1 [compound 404]
54 | 0.57 nM | O=C(N1CC2(CC(Cc3cn(C4CC4)nc3C(F)(F)F)C2)C1)N1CC2(CC(c3nc(C4CC4)n[nH]3)C2)C1 [compound 405]
55 | 1.75 nM | O=C(N1CC2(CC(Cn3cc(C(F)(F)F)ccc3=O)C2)C1)N1CC2(CC(c3nc(C4CC4)n[nH]3)C2)C1 [compound 406]
56 | 9.24 nM | O=C(N1CC2(CC(c3nc(C4CC4)n[nH]3)C2)C1)N1CC2(CC(c3nc(C4CC4)n[nH]3)C2)C1 [compound 407]
57 | 1.46 nM | Cc1cc(C(F)(F)F)nn1-c1ccc(C2CN(C(=O)N3CC4(CC(c5nnc(C6(O)CC6)[nH]5)C4)C3)C2)cc1 [compound 408]
58 | 0.14 nM | O=C(N1CC2(CC(Cn3nccc3C(F)(F)F)C2)C1)N1CC2(CC(c3nc(C4CC4)n[nH]3)C2)C1 [compound 410]
59 | 0.34 nM | O=C(N1CC2(CC(c3ccc(S(=O)(=O)C(F)(F)F)cc3)C2)C1)N1CC2(CC(c3nnc(C4CC4)[nH]3)C2)C1 [compound 413]
60 | 4.43 nM | CC(C)(C)c1ncc(CN2CC3(C2)CN(C(=O)N2CC4(CC(c5nc(C6CC6)n[nH]5)C4)C2)C3)s1 [compound 415]
61 | 6.2 nM | O=C(N1CC2(CC(Cn3cc(C(F)(F)F)ccc3=O)C2)C1)N1CC2(CC(c3nc(C4(O)CC4)n[nH]3)C2)C1 [compound 417]
